Legend:
HSV-I infected cell = experiment: Viral plaque reduction in HSV-I infected cells; format: cell-based; conditions: for viral plaque formation decreased: virally infected cells (Example 1)
From the text: The primary end points were the levels of IL-8 and IL-1 after treatment with an immunostimulator, pyruvate and the combination of pyruvate and α-ketoisovalerate. […] IL-8 activates neutrophils to increase their numbers at the infected site. […] IL-1 increases inflammation and decreases healing times. […] Viral plaques are a direct measure of viral numbers in infected cells.

[1] = test system: total protein, elastase, IL-6, IL-8, TNF-α; experiment: Inhaled sodium pyruvate in cystic fibrosis safety study: sputum inflammatory biomarkers; format: in vivo, human; conditions: for total proteins, elastase, IL-6, IL-8, and TNF-α: CF subjects
Description: All of the enrolled and dosed subjects were able to provide sputum samples for analysis before and after exposure to study drug (sodium pyruvate for inhalation at 0.5, 1.5, and 5.0 mM levels). The subjects were given 5 ml samples to inhale. Specimens were of good quality for the planned assays.
Samples were divided into two main aliquots after processing. The first aliquot was left untreated to be able to assay for the activity of free elastase. The second aliquot was treated with protease inhibitors pheylmethanesulfonylfluoride (PMSF) and ethylenediamine tetraacetic acid (EDTA) to stop any degradation of the cytokines of interest (IL-6, IL-8, IL-10, IL-17, and IL-23) and total protein.
For IL-10, IL-17 and IL-23, levels on sputum were at or below the limit of detection for the assays (7, 2 and 20 pg/mL respectively). For the other markers (total protein, elastase, IL-6, IL-8, TNF-α) levels detected where within those typically found in cystic fibrosis (CF) patients.

[2] = One week open label home-use trial of sodium pyruvate+saline nasal sprays (Example 5); format: in vivo, human
From the text: Thirty-nine (39) subjects who were regular nasal spray users due to chronic sinusitis or allergic rhinitis and other sinus diseases were recruited for a one week open label, in home-use trial. Allergic rhinitis and other sinus diseases result in the elevation of certain inflammatory components and the concurrent down regulation of some other inflammatory components. When this happens, infections can occur. The ability to up-regulate these immune components helps balance the nasal immune system to inhibit infections and minimize injury to surrounding tissues. Six (6) different sodium pyruvate+saline combination nasal sprays, based on concentrations of saline and sodium pyruvate, were administered to the subjects, and each of the test products were used by at least six subjects. The subjects used the test nasal sprays at home (two to three sprays; two or three times a day) for seven days, in place of their regular nasal spray.
Prior to, and at the end of the study period, the subjects' nostrils were examined for mucosal fragility, lesions, erythema, and edema using a rhinoscope.
Thirty-eight subjects completed the study. […] The test formula ranged from 0.5 mM solutions to 20 mM solutions. […] In this case we delivered the 20 mM solution nasal solution with sodium pyruvate. […]

[3] = test system: HSV-1, HSV-2 and various rhinoviruses; experiment: Tissue culture studies, viral plaques; format: cell-based; conditions: 10-40 mM concentrations
Description: (§1) This medication is an anti-viral drug used to treat infants and young children who have a severe lung infection caused by a certain virus (respiratory syncytial virus-RSV). Nearly all children become infected with this virus before they are 3 years old. […] This medication is used to treat severe RSV infections that need treatment in a hospital. This medication is given by continuous inhalation, usually for 12 to 18 hours daily for 3 to 7 days or as directed by the doctor. A special machine (small-particle aerosol generator) is used to make a mist, which is then inhaled through the mouth or nose. Chest soreness may occur. Redness/irritation of the nasal cavities and eye or eyelid may also occur. When five (5) mls. of a 10 mM solution of pyruvate was used prior to the administration of this medication; the patient reported that the irritation and chest soreness was eliminated. […] Tissue culture studies with HSV-1, HSV-2 and various rhinoviruses, have shown that 10-40 mM concentrations of pyruvate reduced viral plaques by 40-60% by increasing the synthesis of various cytokines. The combination of various antivirals with pyruvate totally eliminated the virus infection in cells. The inhalation of 5.0 mls of a 20 mM solution of sodium pyruvate used by itself reduced viral infections in a patient with sinusitis by 50%.

viral infections = experiment: Inhaled sodium pyruvate in a patient with sinusitis, viral infections; format: in vivo, human; conditions: inhalation of 5.0 mls of a 20 mM solution, used by itself; one patient
Description: as §1

Nc1nc2c(ncn2COCCO)c(=O)[nH]1 [Acyclovir, 9-[(2-hydroxyethyloxy)methyl]guanine]
Percentage of viral plaque reduction in virally infected cells (HSV-I infected cell; Acyclovir alone, therapeutic dose): 40%
viral plaque formation decreased (HSV-I infected cell): 60%

CC(=O)C(=O)[O-].[Na+] [sodium pyruvate]
levels of TNF-α ([1]; inhalation at 0.5 mM): did not increase
levels of white blood cells, elastase, IL-8, IL-6 ([1]; inhalation at 0.5 mM): reduced
total proteins, elastase, IL-6, IL-8, and TNF-α ([1]; inhalation of 5 ml of 0.5 mM): reduced
total proteins, elastase, IL-6, IL-8, and TNF-α ([1]; inhalation of 5 ml of 5 mM or higher): increased
levels of white blood cells elastase, IL-8, IL-6, IL-10 and TNF-α ([1]; inhalation of more than 5 mM in humans): increased
viral plaque formation decreased (HSV-I infected cell): 50%
effectiveness rated by the patients compared to the 20-40 mM solutions ([2]; 0.5 mM to 5 mM solutions): non-effective to less effective
rating by the patients ([2]; 40 mM solution): favorably rated
viral plaques reduced [3]: 40-60%
viral infections reduced (viral infections): 50%
